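Following 48 hours of exposure in 96-well plates, responses at five concentrations were used to interpolate endpoints linearly. GI50 marks 50% less growth. TGI denotes the concentration required for complete inhibition of growth.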
Legend:
Assay in all cases: inhibition of tumour cell growth, NCI panel, 48 h
COLO 205 colon = test system: COLO 205 colon
NCI-H226 lung = test system: NCI-H226 lung
HOP-92 NSCLC = test system: HOP-92 NSCLC
M14 melanoma = test system: M14 melanoma
HCC-2998 colon = test system: HCC-2998 colon
SF-295 CNS = test system: SF-295 CNS
UACC-257 melanoma = test system: UACC-257 melanoma
NCI-H522 lung = test system: NCI-H522 lung
SW-620 colon = test system: SW-620 colon
CCRF-CEM leukemia = test system: CCRF-CEM leukemia

Structure (SMILES) | GI50 (COLO 205 colon) [µM] | TGI (COLO 205 colon) [µM] | GI50 (NCI-H226 lung) [µM] | TGI (NCI-H226 lung) [µM] | TGI (HOP-92 NSCLC) [µM] | GI50 (M14 melanoma) [µM] | TGI (M14 melanoma) [µM] | GI50 (HCC-2998 colon) [µM] | TGI (HCC-2998 colon) [µM] | GI50 (SF-295 CNS) [µM] | TGI (SF-295 CNS) [µM] | GI50 (UACC-257 melanoma) [µM] | TGI (UACC-257 melanoma) [µM] | GI50 (NCI-H522 lung) [µM] | TGI (NCI-H522 lung) [µM] | GI50 (SW-620 colon) [µM] | TGI (SW-620 colon) [µM] | GI50 (CCRF-CEM leukemia) [µM] | TGI (CCRF-CEM leukemia) [µM] | GI50 (HOP-92 NSCLC) [µM]
CCN1C(=O)N(CC)C2C1NN=c1s/c(=C\c3cccnc3)c(=O)n12 (stereo not given) | 0.392 | > 53.3 | 1.1 | > 100 | > 100 | 0.298 | > 100 | 1.29 | > 100 | 0.353 | > 100 | > 100 | > 100 | 0.474 | > 100 | 0.393 | > 100 | 0.41 | > 100 | –
N#Cc1cnc2cc(OC[C@H](O)CO)c(NC(=O)CC3CSSC3)cc2c1Nc1ccc(OCc2cccc(F)c2)c(Cl)c1 | 0.883 | 1.81 | 0.335 | 1.49 | 8.04 | 0.139 | 0.447 | 0.796 | 1.55 | 0.83 | 1.6 | 1.01 | 1.96 | 0.729 | 1.59 | 0.698 | 1.58 | 0.0923 | 0.251 | 2.23
Cc1occc1C(=S)Nc1ccc(Cl)c(COC(C)(C)C)c1 | – | 30.6 | – | 34.2 | 30.4 | – | 43.5 | – | 32.2 | – | 27.9 | – | 31.3 | – | 28.6 | – | 33.5 | – | 62.4 | –
CC(C)(C)OC(=O)C#CC[C@H]1CCCC1/C=C/C(O)=C1/C(=O)NC(CCCNC(=O)OC(C)(C)C)C1=O (stereo not given in full) | – | 33.6 | – | > 100 | 59 | – | > 100 | – | > 100 | – | > 100 | – | 61.4 | – | 40.7 | – | > 100 | – | 88.5 | –
Nc1cc2cccc[n+]2c2cc(Cl)ccc12 | 11.8 | – | 13.5 | 59.5 | 69.6 | 19.3 | 47.4 | 16.8 | 37.7 | 23.1 | – | 3.75 | 20.2 | 11.8 | 33 | 26.2 | – | 3.23 | 35.3 | 22.7
CCN(CC)CCn1ccc(=O)c2cc3c(=O)ccn(CCN(CC)CC)c3c(C)c21 | – | 15.3 | – | 23.8 | 19.5 | – | 22.5 | – | 2.93 | – | 17.2 | – | 33.9 | – | 20.7 | – | 5.26 | – | 29.6 | –
O=C1c2ccccc2-c2c1c1ccccc1c(=O)n2CCCNCCCNCCCn1c2c(c3ccccc3c1=O)C(=O)c1ccccc1-2 | 0.572 | 8.1 | < 0.014 | 0.903 | 2.18 | 0.333 | 1.29 | < 0.0162 | 0.167 | 0.0151 | 1.26 | 0.811 | 2.25 | < 0.01 | 0.0554 | < 0.01 | 0.15 | < 0.01 | 0.175 | 0.587
ClCCn1c(CCl)nc2ccc(Cl)cc21 | 1.55 | 3.07 | 0.193 | 0.442 | 2.63 | 0.466 | 1.64 | 2.01 | 3.87 | 2.21 | 5.5 | 1.62 | 3.49 | 0.185 | 0.363 | 0.289 | 1.11 | 0.28 | 1.65 | 0.938
C=C1C(=O)O[C@H]2[C@H]1CC/C(COC(=O)NCc1ccccc1OC)=C\CC[C@@]1(C)O[C@@H]21 | 1.75 | 3.72 | 2.11 | 4.96 | 3.72 | 1.1 | 2.56 | 1.82 | 3.52 | 5.02 | 18.8 | 1.48 | 3.51 | 0.351 | 1.92 | 0.768 | 3.16 | 0.482 | 4.7 | 1.49
COc1cccc(/C=C/C(=O)c2cccc(Nc3nc(Nc4ccccc4)nc(Nc4ccccc4)n3)c2)c1 | 10.5 | 42.3 | 24.2 | > 67.9 | 50.5 | 19.3 | > 72.2 | 7.35 | 26.2 | 1.96 | – | > 56 | > 100 | 15.1 | > 100 | 3.68 | > 48.3 | 5.26 | 45.5 | 1.24
CN1CCN(CCc2cccc(C(=O)c3cnn(-c4ccc(F)cc4)c3N)c2)CC1 | > 25 | > 25 | > 25 | > 25 | > 25 | > 25 | > 25 | > 25 | > 25 | > 25 | > 25 | > 25 | > 25 | > 25 | > 25 | > 25 | > 25 | > 25 | > 25 | > 25
CCN(CC)c1ccc(C(=C2C=CC(=[N+](CC)Cc3cccc(S(=O)(=O)O)c3)C=C2)c2ccc(N(CC)Cc3cccc(S(=O)(=O)O)c3)cc2)cc1 | 1.87 | 3.83 | 9.07 | > 90.2 | 65.8 | 4.93 | 39.2 | 5.78 | > 100 | 2.81 | > 47 | 21 | > 100 | 7.88 | > 79.2 | 4.45 | > 100 | 6.59 | 98.5 | 15.2
CC(=O)NNc1nc(C)c(C(=O)NNC(=O)C(=O)Nc2ccccc2C#N)s1 | – | > 100 | – | > 100 | > 100 | – | > 100 | – | > 100 | – | > 100 | – | > 100 | – | > 100 | – | > 100 | – | > 100 | –
